Patent US20200377885A1, “COMPOSITIONS AND METHODS FOR THE GENERATION OF NEURONS AND USES THEREOF” (Washington University, priority 2017, published 2020)
“Also recorded” adds a separate entry of the source.

How the values were obtained:
[1] = system: HD-MSNs; test: H2O2-induced oxidative stress cell death of HD-MSNs (SYTOX green/Hoechst); type: cell-based, human; conditions: 0.5 μM, 1 mM H2O2 for three hours at day 35, vs DMSO
Method: (§1) In addition, Hoechst 33342 solution (Thermo Fisher Scientific) was added as a counterstain to label all nuclei at a final concentration of 1 μg/ml in culture media. Samples were incubated for at least 10 minutes in 37° C. Images were captured using a Leica DMI 400B inverted microscope with Leica Application Suite (LAS) Advanced Fluorescence. Three images were taken from random areas of each coverslip for at least three biological replicates per experiment. Quantification performed by counting number of SYTOX-positive cells over total Hoechst signal.
(§2) The ATM-Kinase inhibitor KU-60019 was obtained from Abcam (ab144817), solubilized in DMSO and directly added to the cell culture media for a final concentration of 0.5 μM at 30 days post miR-9/9*-124 induction, then cell death was assessed by SYTOX at PID 35. Controls were treated with the same volume of DMSO but no drug. At day 35, cells treated with DMSO or KU-60019 also were treated with 1 mM of H2O2 for three hours. SYTOX green/Hoechst stain was added as already described and imaged for scoring.

[2] = target: ATM (Homo sapiens, UniProt Q13315); conditions: earlier findings; cited from earlier work
[3] = system: HD-MSNs; test: Spontaneous cell death of HD-MSNs by SYTOX green dead-cell staining; type: cell-based, human; conditions: 0.5 μM added at 30 days post induction, assessed at PID 35, vs DMSO
Method: as §1, §2

[4] = system: GFP-74Q-expressing HEF cells; test: Inclusion body formation in GFP-74Q-expressing HEFs after proteasome inhibition; type: cell-based, human; conditions: 5 μM, 24 hours later, vs DMSO
From the text: Because the findings contrasted with previous studies that report the lack of mHTT aggregates in iPSC-derived neurons from HD patients, it was decided to directly test if altering the cellular state of adult HD fibroblasts to an embryonic-like stage, a process that effectively erases aging markers, would affect the aggregation propensity of mHTT in HD-MSNs. HD-iPSCs were derived from adult HD fibroblasts and these stem cells were differentiated back into fibroblasts using a method for generating human embryonic fibroblasts (HEFs) (see e.g., FIG. 26A and FIG. 27A). […] HD.40-HEFs expressed fibroblast markers vimentin and fibronectin (see e.g., FIG. 26B). […] Upon direct conversion of HD.40-HEFs to MSNs (human embryonic MSNs, heMSNs), little to no aggregated mHTT was detectable in HD-heMSNs at PID 21 (see e.g., FIG. FIGS. 24B and 24C). […] It was then decided to investigate differences in mHTT aggregation propensity to elucidate the contribution of aging to protein aggregation in HD. […] To directly test if proteasome activity was preventing the formation of inclusions in HEFs, GFP-74Q-expressing HEF cells were treated with the proteasome inhibitor lactacystin, and assessed the presence of inclusions 24 hours later. […]

ATM, sequence (Q13315 whole entry, species assumed): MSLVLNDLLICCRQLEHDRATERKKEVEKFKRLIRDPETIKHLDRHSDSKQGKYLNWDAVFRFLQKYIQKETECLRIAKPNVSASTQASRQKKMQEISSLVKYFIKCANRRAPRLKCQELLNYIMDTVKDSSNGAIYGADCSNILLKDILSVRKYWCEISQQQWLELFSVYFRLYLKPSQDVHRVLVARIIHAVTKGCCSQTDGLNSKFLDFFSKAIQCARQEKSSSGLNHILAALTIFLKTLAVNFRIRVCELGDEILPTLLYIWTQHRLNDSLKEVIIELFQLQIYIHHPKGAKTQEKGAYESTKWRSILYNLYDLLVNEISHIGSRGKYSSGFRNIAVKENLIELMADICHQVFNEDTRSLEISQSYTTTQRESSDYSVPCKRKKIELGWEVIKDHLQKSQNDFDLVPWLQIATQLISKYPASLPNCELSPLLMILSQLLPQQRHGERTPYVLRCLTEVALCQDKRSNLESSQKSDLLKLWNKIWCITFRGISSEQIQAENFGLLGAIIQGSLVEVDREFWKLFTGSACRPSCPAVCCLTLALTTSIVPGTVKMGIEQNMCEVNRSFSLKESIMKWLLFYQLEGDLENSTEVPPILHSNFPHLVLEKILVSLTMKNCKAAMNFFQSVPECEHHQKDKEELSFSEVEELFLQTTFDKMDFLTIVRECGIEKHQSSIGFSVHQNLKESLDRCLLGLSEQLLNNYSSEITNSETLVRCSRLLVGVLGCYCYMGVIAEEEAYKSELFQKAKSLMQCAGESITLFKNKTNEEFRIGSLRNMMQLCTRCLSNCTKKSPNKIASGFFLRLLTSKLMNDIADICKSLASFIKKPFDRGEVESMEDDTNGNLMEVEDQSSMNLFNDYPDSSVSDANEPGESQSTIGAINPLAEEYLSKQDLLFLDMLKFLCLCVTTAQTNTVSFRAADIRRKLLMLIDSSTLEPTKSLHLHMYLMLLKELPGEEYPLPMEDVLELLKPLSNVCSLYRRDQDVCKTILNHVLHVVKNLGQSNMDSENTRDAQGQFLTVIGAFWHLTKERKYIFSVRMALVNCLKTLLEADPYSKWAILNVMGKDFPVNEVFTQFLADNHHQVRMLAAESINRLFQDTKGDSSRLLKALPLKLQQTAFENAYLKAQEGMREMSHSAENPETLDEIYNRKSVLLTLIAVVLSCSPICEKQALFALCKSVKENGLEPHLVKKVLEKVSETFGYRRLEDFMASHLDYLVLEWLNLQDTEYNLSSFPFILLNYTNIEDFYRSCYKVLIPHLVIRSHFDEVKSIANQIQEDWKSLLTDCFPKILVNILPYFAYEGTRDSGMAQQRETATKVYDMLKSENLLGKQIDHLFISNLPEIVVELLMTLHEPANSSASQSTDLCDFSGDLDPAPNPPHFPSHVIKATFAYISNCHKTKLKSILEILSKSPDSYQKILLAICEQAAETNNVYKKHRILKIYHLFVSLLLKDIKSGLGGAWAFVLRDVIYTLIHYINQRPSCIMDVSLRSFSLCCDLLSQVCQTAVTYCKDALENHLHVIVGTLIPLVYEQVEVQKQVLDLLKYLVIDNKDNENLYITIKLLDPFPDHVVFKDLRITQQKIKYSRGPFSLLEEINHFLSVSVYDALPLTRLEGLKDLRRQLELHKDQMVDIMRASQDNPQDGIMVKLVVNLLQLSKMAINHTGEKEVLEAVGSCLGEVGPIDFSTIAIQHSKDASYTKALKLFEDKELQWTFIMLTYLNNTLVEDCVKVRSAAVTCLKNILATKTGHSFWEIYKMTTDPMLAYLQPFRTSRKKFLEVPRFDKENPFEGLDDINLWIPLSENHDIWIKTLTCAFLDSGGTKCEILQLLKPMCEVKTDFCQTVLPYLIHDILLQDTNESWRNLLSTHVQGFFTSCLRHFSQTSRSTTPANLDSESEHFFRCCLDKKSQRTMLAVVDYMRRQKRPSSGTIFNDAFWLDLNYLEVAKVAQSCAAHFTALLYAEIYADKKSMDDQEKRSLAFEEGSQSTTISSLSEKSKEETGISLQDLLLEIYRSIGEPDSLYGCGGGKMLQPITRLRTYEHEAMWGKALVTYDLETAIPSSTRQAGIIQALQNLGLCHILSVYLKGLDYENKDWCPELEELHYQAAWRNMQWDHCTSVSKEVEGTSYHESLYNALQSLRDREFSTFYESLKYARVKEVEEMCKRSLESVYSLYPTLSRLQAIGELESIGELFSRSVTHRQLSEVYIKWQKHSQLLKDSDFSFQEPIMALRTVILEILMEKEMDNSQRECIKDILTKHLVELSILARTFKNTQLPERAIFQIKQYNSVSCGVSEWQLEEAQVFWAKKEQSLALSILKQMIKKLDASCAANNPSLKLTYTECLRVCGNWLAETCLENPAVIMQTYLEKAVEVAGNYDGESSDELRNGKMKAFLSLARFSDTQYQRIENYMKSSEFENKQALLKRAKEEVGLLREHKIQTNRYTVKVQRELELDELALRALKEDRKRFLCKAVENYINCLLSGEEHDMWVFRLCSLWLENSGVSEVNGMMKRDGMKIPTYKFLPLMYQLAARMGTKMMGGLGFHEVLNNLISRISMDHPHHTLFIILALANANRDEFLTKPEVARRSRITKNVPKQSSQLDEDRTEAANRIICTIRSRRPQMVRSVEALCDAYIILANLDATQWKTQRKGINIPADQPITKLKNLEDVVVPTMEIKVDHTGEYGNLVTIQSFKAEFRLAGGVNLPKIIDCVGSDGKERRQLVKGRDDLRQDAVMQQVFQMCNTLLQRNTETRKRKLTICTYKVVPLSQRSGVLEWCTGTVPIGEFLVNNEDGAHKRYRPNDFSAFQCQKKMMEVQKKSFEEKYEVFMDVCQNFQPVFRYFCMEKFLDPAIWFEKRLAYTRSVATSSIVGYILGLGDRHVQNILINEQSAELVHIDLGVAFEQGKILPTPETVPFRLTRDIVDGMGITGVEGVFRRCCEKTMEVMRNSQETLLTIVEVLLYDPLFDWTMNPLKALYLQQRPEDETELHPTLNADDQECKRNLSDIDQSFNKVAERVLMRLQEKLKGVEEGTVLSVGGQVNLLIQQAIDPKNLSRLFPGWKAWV

Row | Structure (SMILES) | levels of stress-induced cell death (H2O2-induced oxidative stress) [1] | mHTT-induced cell death [2] | levels of spontaneous cell death (SYTOX-positive cells over Hoechst) [3] | number of cells bearing inclusions (IBs) [4] | number of cells bearing inclusions (IBs) ([4]; listed as Lactacystin)
1 | C[C@@H]1CN(CC(=O)Nc2ccc3c(c2)Cc2cccc(-c4cc(=O)cc(N5CCOCC5)o4)c2S3)C[C@H](C)O1 [KU60019] | significantly reduced; also recorded: protects HD-MSNs against H2O2-induced oxidative stress | reduce mHTT-induced cell death | significantly reduced; also recorded: reduces cell death levels |  | 
2 | CC(=O)N[C@@H](CSC(=O)[C@]1([C@@H](O)C(C)C)NC(=O)[C@H](C)[C@@H]1O)C(=O)O [lactacystin] |  |  |  | induces IBs | significantly increased
